Target: T1, MEK (Homo sapiens, UniProt Q02750)
T1 construct: no tag is given for the 2D mutant
Assay: in vitro MEK assay
Type: biochemical
Protocol: For evaluation of direct MEK activity, 10 μg GST-MEK, is incubated in the presence of absence of test compound with 5 μg of a glutathione S-transferase fusion protein containing p44MAP kinase with a lysine to alanine mutation at position 71 (GST-MAPK-KA). This mutation eliminates kinase activity of MAPK, so only kinase activity attributed to the added MEK remains. Incubations are 15 minutes at 30° C. in a final volume of 50 μL containing 50 mM Tris (pH 7.5), […], 2, μM EGTA, and 10 μM [γ-^32P]ATP. The reaction is stopped by addition of Laemmli SDS sample buffer. Phosphorylated GST-MAPK-KA is resolved by electrophoresis on a 10% polyacrylamide gel. Radioactivity incorporated into GST-MAPK-KA is determined by autoradiography, and subsequent scintillation counting of excised bands.
Alternatively, an artificially activated MEK containing serine to glutamate mutations at positions 218 and 222 (GST-MEK-2E) is used. When these two sites are phosphorylated, MEK activity is increased. Phosphorylation of these sites can be mimicked by mutation of the serine residues to glutamate. For this assay, 5 μg GST-MEK-2E is incubated with 5 μg GST-MAPK-KA for 15 minutes at 30° C. in the same reaction buffer as described above. Reactions are terminated and analyzed as above.

T1 sequence (Q02750 whole entry S218D/S222D, form open): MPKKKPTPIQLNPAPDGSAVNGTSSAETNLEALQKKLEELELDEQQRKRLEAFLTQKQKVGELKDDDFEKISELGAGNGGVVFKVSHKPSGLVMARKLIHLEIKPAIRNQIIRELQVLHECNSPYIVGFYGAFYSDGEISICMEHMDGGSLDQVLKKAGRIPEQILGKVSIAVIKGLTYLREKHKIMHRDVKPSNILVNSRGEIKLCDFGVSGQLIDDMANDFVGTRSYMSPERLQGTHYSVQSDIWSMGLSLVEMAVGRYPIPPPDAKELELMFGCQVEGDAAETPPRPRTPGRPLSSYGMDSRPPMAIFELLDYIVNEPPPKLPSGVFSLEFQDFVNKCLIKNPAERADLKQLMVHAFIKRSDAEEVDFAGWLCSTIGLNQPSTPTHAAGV

Row | SMILES | in vitro MEK assay: % inhibition @ 1 μM | IC50
1 | Cc1cc(I)ccc1N1COC(=O)c2cc(C(=O)N3CCCC(O)C3)c(F)c(F)c21 (stereo not shown) [Example 38, 7,8-Difluoro-6-(3-hydroxy-piperidine-1-carbonyl)-1-(4-iodo-2-methyl-phenyl)-1,2-dihydro-3,1-benzoxazin-4-one] | 48% | –
2 | Cc1cc(I)ccc1N1COC(=O)c2cc(C(=O)N3CCC(O)C3)c(F)c(F)c21 (stereo not shown) [Example 40, 7,8-Difluoro-6-(3-hydroxy-pyrrolidine-1-carbonyl)-1-(4-iodo-2-methyl-phenyl)-1,2-dihydro-3,1-benzoxazin-4-one] | 42% | –
3 | Cc1cc(I)ccc1N1COC(=O)c2cc(C(=O)Nc3cccnc3)c(F)c(F)c21 [Example 37, 7,8-Difluoro-1-(4-iodo-2-methyl-phenyl)-4-oxo-1,4-dihydro-2H-3,1-benzoxazine-6-carboxylic acid pyridin-3-ylamide] | 20% | –
4 | Cc1cc(I)ccc1N1COC(=O)c2cc(C(=O)NCCN3CCCCC3)c(F)c(F)c21 [Example 10, 7,8-Difluoro-1-(4-iodo-2-methyl-phenyl)-4-oxo-1,4-dihydro-2H-3,1-benzoxazine-6-carboxylic acid (2-piperidin-1-yl-ethyl)-amide] | 44% | –
5 | Cc1cc(I)ccc1N1COC(=O)c2cc(C(=O)Nc3ccc(Cl)nc3)c(F)c(F)c21 [Example 45] | 62% | –
6 | Cc1cc(I)ccc1N1COC(=O)c2cc(C(=O)N(C)C)c(F)c(F)c21 [Example 5, 7,8-Difluoro-1-(4-iodo-2-methyl-phenyl)-4-oxo-1,4-dihydro-2H-benzo[d][1,3]oxazine-6-carboxylic acid dimethylamide] | – | 5.8 µM
7 | CCOC(=O)c1c[nH]nc1NC(=O)c1cc2c(c(F)c1F)N(c1ccc(I)cc1C)COC2=O [Example 34, 3-{[7,8-Difluoro-1-(4-iodo-2-methyl-phenyl)-4-oxo-1,4-dihydro-2H-3,1-benzoxazine-6-carbonyl]-amino}-1H-pyrazole-4-carboxylic acid ethyl ester] | 72% | –
8 | Cc1cc(I)ccc1N1COC(=O)c2cc(C(=O)Nc3nncs3)c(F)c(F)c21 [Example 21, 7,8-Difluoro-1-(4-iodo-2-methyl-phenyl)-oxo-1,4-dihydro-2H-3,1-benzoxazine-6-carboxylic acid 1,3,4-thiadiazol-2-ylamide] | 31% | –
9 | Cc1cc(I)ccc1N1COC(=O)c2cc(C(=O)Nc3nccs3)c(F)c(F)c21 [Example 31, 7,8-Difluoro-1-(4-iodo-2-methyl-phenul)-4-oxo-1,4-dihydro-2H-3,1-benzoxazine-6-carboxylic acid thiazol-2-ylamide] | 32% | –
10 | Cc1cc(I)ccc1N1COC(=O)c2cc(C(=O)Nc3nnc(S)s3)c(F)c(F)c21 [Example 27, 7,8-Difluoro-1-(4-iodo-2-methyl-phenyl)-4-oxo-1,4-dihydro-2H-3,1-benzoxazine-6-carboxylic acid (5-mercapto-1,3,4-thiadiazol-2-yl)-amide] | 27% | –
11 | Cc1cc(I)ccc1N1COC(=O)c2cc(C(=O)Nc3ccccc3CCO)c(F)c(F)c21 [Example 30, 7,8-Difluoro-1-(4-iodo-2-methyl-phenyl)-4-oxo-1,4-dihydro-2H-3,1-benzoxazine-6-carboxylic acid [2-(2-hydroxy-ethyl)-phenyl]-amide] | 55% | –

More lines, now with the values ahead:

Row | in vitro MEK assay: % inhibition @ 1 μM | IC50 | SMILES
12 | 71% | 1.7 µM | Cc1cc(I)ccc1Nc1c(C(=O)O)cc(C(=O)NCc2ccncc2)c(F)c1F [Example 80, 4,5-Difluoro-6-(4-iodo-2-methyl-phenylamino)-N-pyridin4-ylmethyl-isophthalamic acid]
13 | 50% | – | Cc1cc(I)ccc1N1COC(=O)c2cc(C(=O)N(CCO)CCO)c(F)c(F)c21 [Example 49, 7,8-Difluoro-1-(4-iodo-2-methyl-phenyl)-4-oxo-1,4-dihydro-2H-3,1-benzoxazine-6-carboxylic acid bis-(2-hydroxy-ethyl)-amide]
14 | 92% | 0.465 µM | Cc1cc(I)ccc1Nc1c(C(=O)O)cc(C(=O)N2CCCC(O)C2)c(F)c1F (stereo not shown) [Example 75]
15 | 35% | – | Cc1cc(I)ccc1N1COC(=O)c2cc(C(=O)NCCCn3ccnc3)c(F)c(F)c21 [Example 52, 7,8-Difluoro-1-(4-iodo-2-methyl-phenyl)-4-oxo-1,4-dihydro-2H-3,1-benzoxazine-6-carboxylic acid (3-imidazol-1-yl-propyl)amide]
16 | 86% | 1.1 µM | CCOC(=O)c1c[nH]nc1NC(=O)c1cc(C(=O)O)c(Nc2ccc(I)cc2C)c(F)c1F [Example 73, 3-({1-[5-Carboxy-2,3-difluoro-4-(4-iodo-2-methyl-phenylamino)-phenyl]-methanoyl}-amino)-1H-pyrazole-4-carboxylic acid ethyl ester]
17 | 44% | – | Cc1cc(I)ccc1N1COC(=O)c2cc(C(=O)NCCc3c[nH]cn3)c(F)c(F)c21 [Example 50, 7,8-Difluoro-1-(4-iodo-2-methyl-phenyl)4-oxo-1,4-dihydro-2H-3,1-benzoxazine-6-carboxylic acid [2-(1H-imidazol4-yl)-ethyl]-amide]
18 | 33% | – | Cc1cc(I)ccc1Nc1c(C(=O)O)cc(C(=O)N2CCC(N3CCCC3)CC2)c(F)c1F [Example 78, 3,4-Difluoro-2-(4-iodo-2-methyl-phenylamino)-5-[1-(4-pyrrolidin-1-yl-piperidin-1-yl)-methanoyl]-benzoic acid]
19 | 85% | – | Cc1cc(I)ccc1Nc1c(C(=O)O)cc(C(=O)Nc2ccc(S(N)(=O)=O)cc2)c(F)c1F [Example 96, 4,5-Difluoro-6-(4-iodo-2-methyl-phenylamino)-N-(4-sulfamoyl-phenyl)-isophthalamic acid]
20 | 30% | – | Cc1cc(I)ccc1N1COC(=O)c2cc(C(=O)NC3CCCC[C@@H]3O)c(F)c(F)c21 (stereo in doubt) [Example 60, 7,8-difluoro-1-(4-iodo-2-methyl-phenyl)-4-oxo-1,4-dihydro-2H-3,1-benzoxazine-6-carboxylic acid ((S)-2-hydroxy-cyclohexyl)-amide]
21 | 83% | 0.88 µM | Cc1cc(I)ccc1Nc1c(C(=O)O)cc(C(=O)N2CCC(O)C2)c(F)c1F (stereo not shown) [Example 77, 3,4-Difluoro-5-[1-(3-hydroxy-pyrrolidin-1-yl)-methanoyl]-2-(4-iodo-2-methyl-phenylamino)-benzoic acid]
22 | 63% | 1.38 µM | Cc1cc(I)ccc1Nc1c(C(=O)O)cc(C(=O)NCCOCCO)c(F)c1F [Example 65, 4,5-Difluoro-N-[2-(2-hydroxy-ethoxy)-ethyl]-6-(4-iodo-2-methyl-phenylamino)-isophthalamic acid]
23 | 12% | – | COc1ccc2c(CCNC(=O)c3cc4c(c(F)c3F)N(c3ccc(I)cc3C)COC4=O)c[nH]c2c1 [Example 48, 7,8-Difluoro-1-(4-iodo-2-methyl-phenyl)-4-oxo-1,4-dihydro-2H-3,1-benzoxazine-6-carboxylic acid [2-(6-methoxy-1H-indol-3-yl)-ethyl]-amide]
